Results published in publication PMC2913121 (Nature chemistry, 2010).

Key:
SjGST [1] = molecular target: T1, SjGST (Schistosoma japonicum, UniProt P08515); assay: CDNB conjugation assay; type: biochemical; settings: aniline up to 20 mM
SjGST [2] = molecular target: T1, SjGST; assay: SjGST-templated acylhydrazone DCL, amplification by HPLC; type: binding; settings: DCL synthesis in the presence of a large excess of the inhibitor

T1 sequence (P08515 whole entry): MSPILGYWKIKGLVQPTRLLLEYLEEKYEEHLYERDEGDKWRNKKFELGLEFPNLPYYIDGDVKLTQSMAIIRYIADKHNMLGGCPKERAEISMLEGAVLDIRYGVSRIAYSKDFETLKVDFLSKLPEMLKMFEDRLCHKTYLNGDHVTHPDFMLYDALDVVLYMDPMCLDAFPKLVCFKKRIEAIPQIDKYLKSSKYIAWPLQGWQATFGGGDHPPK

Row | SMILES | SjGST GSH conjugation activity in the presence of the additive (SjGST [1]) | effect on DCL component amplification (SjGST [2])
1 | Nc1ccccc1 [aniline] | retained GSH conjugation activity | –
2 | C=C(CC)C(=O)c1ccc(OCC(=O)O)c(Cl)c1Cl [ethacrynic acid] | – | completely suppressed
